# Assay results as given in US20050014806A1, “Substituted isoxazoles and their use as antibiotics” (priority 2001, published 2005).
# Experiments:
# Assay type in all cases: cell-based
# [1] = test system: Streptococcus faecalis (BCM-010); assay: MIC by microdilution in microtiter plate, BCM-010; conditions: incubation 24 h at 35° C.; for MIC: Enterococcus faecalis
# Method: (§1) In order to assess the antimicrobial activity of the compounds of the present invention a method of microdilution in microtiter plate was used. The compounds were diluted in a nutritious medium and, subsequently, distributed by two-fold serial dilutions in 96 well plates. Then, plates were inoculated with a bacterial suspension. After incubation for 24 h at 35° C. the minimum inhibitory concentration (MIC) of the drug in […] was determined as the lowest concentration of compound which inhibits the growth of the bacterium. Results included in Table 1 illustrate the antimicrobial activity of some of the compounds of the present invention in comparison with thus obtained with two compounds (linezolid and eperezolid) of a known antimicrobial activity. The antimicrobial activity of the compound versus Streptococcus faecalis (BCM-010, strain designation as for SALVAT collection) Staphylococcus aureus (BCM-012, strain designation as for SALVAT collection) and Moraxella catarrhalis (BCM-015, strain designation as for SALVAT collection), respectively, is shown in the different columns.
# [2] = test system: Staphylococcus aureus (BCM-012); assay: MIC by microdilution in microtiter plate, BCM-012; conditions: incubation 24 h at 35° C.
# Method: as §1
# [3] = test system: Moraxella catarrhalis (BCM-015); assay: MIC by microdilution in microtiter plate, BCM-015; conditions: incubation 24 h at 35° C.
# Method: as §1
Compound,BCM-010 MIC [1] [µg/mL],BCM-012 MIC [2] [µg/mL],BCM-015 MIC [3] [µg/mL],MIC [1] [µg/mL],MIC [2] [µg/mL],MIC [3] [µg/mL]
1-(2-fluoro-4-{5-[(3-methylisotiazol-5-ylamino)-methyl]isoxazol-3-yl}phenyl)-1H-imidazol-4-carboxaldehyde [Example 33],2,0.5,4,–,–,–
"CC(=O)NC[C@H]1CN(c2ccc(N3CCN(C(=O)CO)CC3)c(F)c2)C(=O)O1 [Eperezolid, eperezolid, reference compound]",–,–,–,4,2,8
"O=C(CO)N1CCN(c2ccc(-c3cc(CNc4ccon4)on3)cc2F)CC1 [Example 1, 3-[3-fluoro-4-(hydroxyacetyl)piperazin-1-ylyhenyl]-5-(isoxazol-3-ylaminomethyl)isoxazole]",–,–,–,4,2,8
"Fc1cc(-c2cc(CNc3ccon3)on2)ccc1-n1ccnc1 [Example 2, 3-(3-fluoro-4-imidazol-1-ylphenyl)-5-(isoxazol-3-ylaminomethyl)isoxazole]",–,–,–,4,2,–
O=C(c1ccno1)N1CCN(c2ccc(-c3cc(CNc4ccon4)on3)cc2F)CC1 [Example 3],–,–,–,4,2,–
O=Cc1ccn(-c2ccc(-c3cc(CNc4ccon4)on3)cc2F)c1 [Example 5],–,–,–,1,1,8
O=C(Cn1cccn1)N1CCN(c2ccc(-c3cc(CNc4ccon4)on3)cc2F)CC1 [Example 6],–,–,–,4,2,> 16
"O=C(COc1ccccc1)N1CCN(c2ccc(-c3cc(CNc4ccon4)on3)cc2F)CC1 [Example 7, 1-(4-{2-fluoro-4-[5-(isoxazol-3-ylaminomethyl)-isoxazol-3-yl]-phenyl}piperazin-1-yl)-2-phenoxyethanone]",–,–,–,4,2,–
"O=C(Cn1cncn1)N1CCN(c2ccc(-c3cc(CNc4ccon4)on3)cc2F)CC1 [Example 8, 3-[3-fluoro-4-(4-(1,2,4-triazol-1-yl)acetyl)piperazin-1-ylphenyl]-5-(isoxazol-3-ylaminomethyl)isoxazole]",–,–,–,4,2,–
"O=C(c1cccnc1)N1CCN(c2ccc(-c3cc(CNc4ccon4)on3)cc2F)CC1 [Example 9, 3-[3-fluoro-4-(3-pyridylcarbonyl)piperazin-1-ylphenyl]-5-(isoxazol-3-ylaminomethyl)isoxazole]",–,–,–,4,2,> 16
"O=C(Cn1cccc1)N1CCN(c2ccc(-c3cc(CNc4ccon4)on3)cc2F)CC1 [Example 10, 3-[3-fluoro-4-(4-(1-pyrrolyl)acetyl)piperazin-1-ylphenyl]-5-(isoxazol-3-ylaminomethyl)isoxazole]",–,–,–,4,2,> 16
"O=C(COc1cccnc1)N1CCN(c2ccc(-c3cc(CNc4ccon4)on3)cc2F)CC1 [Example 11, 3-[3-fluoro-4-(3-pyridyloxyacetyl)piperazin-1-ylphenyl]-5-(isoxazol-3-ylaminomethyl)isoxazole]",–,–,–,4,2,–
"O=C(COc1ccccn1)N1CCN(c2ccc(-c3cc(CNc4ccon4)on3)cc2F)CC1 [Example 12, 3-[3-fluoro-4-(2-pyridyloxyacetyl)piperazin-1-ylphenyl]-5-(isoxazol-3-ylaminomethyl)isoxazole]",–,–,–,2,2,–
"O=C(COc1cccc([N+](=O)[O-])c1)N1CCN(c2ccc(-c3cc(CNc4ccon4)on3)cc2F)CC1 [Example 13, 3-[3-fluoro-4-(3-nitrophenyloxyacetyl)piperazin-1-ylphenyl]-5-(isoxazol-3-ylaminomethyl)isoxazole]",–,–,–,2,1,–
"O=C(COc1ccc([N+](=O)[O-])cc1)N1CCN(c2ccc(-c3cc(CNc4ccon4)on3)cc2F)CC1 [Example 14, 3-[3-fluoro-4-(4-nitrophenyloxyaetyl)piperazin-1-ylphenyl]-5-(isoxazol-3-ylaminomethyl)isoxazole]",–,–,–,2,1,–
"O=C(COCc1ccco1)N1CCN(c2ccc(-c3cc(CNc4ccon4)on3)cc2F)CC1 [Example 15, 3-[3-fluoro-4-(2-furylmethoxyacetyl)piperazin-1-ylphenyl]-5-(isoxazol-3-ylaminomethyl)isoxazole]",–,–,–,4,2,–
"O=C(COCc1ccccn1)N1CCN(c2ccc(-c3cc(CNc4ccon4)on3)cc2F)CC1 [Example 16, 3-[3-fluoro-4-(2-pyridylmethoxyacetyl)piperazin-1-ylphenyl]-5-(isoxazol-3-ylaminomethyl)isoxazole]",–,–,–,4,2,–
"N#Cc1ccc(OCC(=O)N2CCN(c3ccc(-c4cc(CNc5ccon5)on4)cc3F)CC2)cc1 [Example 17, 3-[3-fluoro-4-(4-cyanophenoxyacetyl)piperazin-1-ylphenyl]-5-(isoxazol-3-ylaminomethyl)isoxazole]",–,–,–,2,2,–
"C#CCOCC(=O)N1CCN(c2ccc(-c3cc(CNc4ccon4)on3)cc2F)CC1 [Example 18, 3-[3-fluoro-4-(3-propyn-1-yloxyacetyl)piperazin-1-ylphenyl]-5-(isoxazol-3-ylaminomethyl)isoxazole]",–,–,–,4,2,–
"O=Cc1ccc(OCC(=O)N2CCN(c3ccc(-c4cc(CNc5ccon5)on4)cc3F)CC2)cc1 [Example 19, 3-[3-fluoro-4-(4-formylphenyloxyacetyl)piperazin-1-ylphenyl]-5-(isoxazol-3-ylaminomethyl)isoxazole]",–,–,–,0.5,1,–
"O=C(COc1ccc2ncccc2c1)N1CCN(c2ccc(-c3cc(CNc4ccon4)on3)cc2F)CC1 [Example 22, 1-(4-{2-fluoro-4-[5-(isoxazol-3-ylaminomethyl)-isoxazol-3-yl]-phenyl}piperazin-1-yl)-2(quinolin-6-yloxy)ethanone]",–,–,–,1,0.5,4
"OCc1ccn(-c2ccc(-c3cc(CNc4ccon4)on3)cc2F)c1 [Example 23, (1-{2-fluoro-4-[5-(isoxazol-3-ylaminomethyl)-isoxazol-3-yl]phenyl}-1H-pyrrol-3-yl)methanol]",–,–,–,1,0.5,4
O/N=C\c1ccn(-c2ccc(-c3cc(CNc4ccon4)on3)cc2F)c1 [Example 24],–,–,–,0.5,0.5,16
N#Cc1ccn(-c2ccc(-c3cc(CNc4ccon4)on3)cc2F)c1 [Example 25],–,–,–,0.5,0.5,16
"O=Cc1ccc(OCC(=O)N2CCN(c3c(F)cc(-c4cc(CNc5ccon5)on4)cc3F)CC2)cc1 [Example 26, 4-[2-(4-{2,6-difluoro-4-[5-(isoxazol-3-ylaminomethyl)isoxazol-3-yl]phenyl}piperazin-1-yl)-2-oxoethoxy]benzaldehyde]",–,–,–,1,0.5,4
"O=C(COc1ccc(/C=N\O)cc1)N1CCN(c2c(F)cc(-c3cc(CNc4ccon4)on3)cc2F)CC1 [Example 31, 4-[2-(4-{2,6-difluoro-4-[5-(isoxazol-3]aminomethyl)isoxazol-3-yl-penyl}-piperazin-1-yl)2-oxoethoxy]-benzaldoxime]",–,–,–,1,0.5,–
"Cc1cc(NCc2cc(-c3ccc(-n4ccnc4)c(F)c3)no2)sn1 [Example 32, [3-(3-fluoro-4-imidazol-1-ylphenyl)isoxazol-5-ylmethyl]-(3-methylisotiazol-5-yl)amine]",–,–,–,1,1,–
